# Test results published in US11426443B2, “Compositions and methods for invasive and non-invasive procedural skincare” (Alastin Skincare, Inc., priority 2016, dated 2022).
# Columns and labels:
# VEGF = conditions: pg VEGF/ng DNA as a function of GHK ng/mL; FIG. 11; cited from earlier work
# MMP-2 = conditions: wound chamber, vs control, cited from earlier work
# [1] = format: physicochemical
# Excerpt: Certain components of the formulation tend to be difficult to solubilize in conventional formulations. […] For topical compositions containing from about 0.05% by weight to about 0.1% by weight phosphatidyl serine and/or from about 0.05% by weight to about 0.1% by weight oleuropein, caprylyl methicone in an amount of from about 0.5% by weight to about 1% by weight of caprylyl methicone can solubilize these components in an anhydrous formulation.
# In Formula 8B, the amount of palmitoyl tripeptide was increased to 3%, and phosphatidylserine (lipoid PS P 70) was added, along with oleuropein 80% at 0.025%. […] In Formula 9B, the concentration of heptyl undecylenate was lowered to 2.5%, caprylyl methicone was added to solubilize the Lipoind PS P 70, which was increased to 0.05%, and oleuropein 80% was increased to 0.05%. The viscosity for Formula 9B was approximately 5000 cPs.
Compound,secretion of VEGF (VEGF),"gelatinolytic activity (peaks area/μg protein), MMP-2 (MMP-2; from day 3, peaking at days 18-22, FIG. 9)","gelatinolytic activity (peaks area/μg protein) (MMP-2; from day 12, peaking at days 18-22, FIG. 10)",solubility in heptyl undecylenate [1]
glycine-histidine-lysine [GHK],dose-dependently increases,far greater degree than control,far greater degree than control,–
C/C=C1/[C@H](O[C@@H]2O[C@H](CO)[C@@H](O)[C@H](O)[C@H]2O)OC=C(C(=O)OC)[C@H]1CC(=O)OCCc1ccc(O)c(O)c1 [oleuropein],–,–,–,poor solubility
phosphatidylserine [Lipoid PS P70],–,–,–,poor solubility
